In patent US12514797B2, “Cosmetic and dermatological compositions” (Northeastern University, priority 2017, dated 2026):

How the values were obtained:
[1] = Hydroxyl radical antioxidant capacity (HORAC) activity assay; format: biochemical; details: compared to commercially available antioxidant standard gallic acid
Description: FIG. 14 illustrates the hydroxyl radical antioxidant capacity (HORAC) activity assay activity of Xa. The HORAC assay was used to evaluate the application of Xa as a natural antioxidant. Xa consumes hydroxyl radicals produced by the activation of the fenton reagent preventing the degradation of the fluorescein probe.
Oxygen derived species such as superoxide radical, hydrogen peroxide, singlet oxygen and hydroxyl radical are well known to be cytotoxic and have been implicated in the onset of a wide array of human diseases. These “compounds” are often referred to as reactive oxygen species (ROS). ROS normally exist in all aerobic cells in balance with biochemical antioxidants; however, this critical equilibrium can be disrupted due to excess ROS or antioxidant depletion and can result in oxidative stress. Antioxidants are used in cosmetics, pharmaceuticals, food and on the skin directly minimize the undesirable reactions resulting from oxidation caused by ROS. Commonly used antioxidants typically contain a combination of phenol, benzene and alkene functional groups. These key features work to inhibit the propagation of ROS through resonance stabilization of free radicals. […] The ability of particles and pigments (free and encapsulated) to […] ROS are measured using the colorimetric hydroxyl radical antioxidant capacity (HORAC) assay (FIG. 14). […]

[2] = UV absorbance in vitro, SPF calculated using the Mansur equation, comparison to known UV-filters; format: physicochemical
Protocol: FIG. 12 provides absorbance curves (see top graph) and corresponding comparator values (see table) of Xa to known UV-filters, avo- and oxy-benzone. […] X−1 represents synthetic Xa; X−2 represents Xa extracted from squid at 0.10 mM. SPF was calculated using the Mansur equation and critical wavelength was determined as the wavelength at which 90% of the absorbance curve resides.
Xa is the simplest and most common ommochrome and is formed (along with the reduced dihydro-xanthommatin and ommatin subclasses) via the condensation of two hydroxykynurenine residues in the kynurenine pathway of tryptophan metabolism. Once synthesized, Xa is stabilized within granules (diameter 530 nm) that are resistant to photodegradation. An added predicted functionality, although largely unexplored in vitro and in vivo, is that Xa behaves as a free-radical scavenger. Together, with the data presented in FIG. 12 showing that Xa absorbs UV radiation ˜2× higher than current chemical filters at the same concentrations, it is expected that Xa and Xa-based materials can function as UV-filters that can not only protect against solar irradiation but can also be used in preventative skin care as free-radical scavengers (while maintaining biocompatibility).
(§1) Given its propensity to form granules in natural systems (FIG. 3, left) and its impressive UV-absorptive properties in vitro (FIG. 12, see Table 2 below), Xa was encapsulated within biodegradable particles designed to improve its durability and use as a topical UV-filter. The complex refractive index (RI) of Xa was experimentally determined as 1.92+0.014i. This uniquely high RI is important, especially when considering the design criteria of the particle based UV-filters. For instance, when assembled into nano- and micro-particles, Xa will scatter more light than it absorbs at diameters >200 nm, and this difference is maximized at sizes >[…] (FIG. 13). Because light scattering is an important feature for heat dissipation and reflection for coatings, it can be preferable to design particles with diameters ranging from 1-10 μm.

[3] = pH-dependent stability (MSMS analysis of pigment hydrolysis); format: physicochemical; details: pH values approached and exceeded 10.00, mass addition of water
[4] = Electrochromic device (Xa in PEDOT:PSS) redox-dependent color switch, CIE 1931 chromaticity and transmittance; format: physicochemical; details: darkest yellow (O3) to red (R3) films, 555 nm
Description: Even though its exact mechanism for electron transfer remains unknown, phenoxazone-based materials are believed to undergo a reversible reduction to dihydroxanthommatin, gaining two electrons and two protons during its redox-dependent color change. These principles are used to show how the pigment stabilized in a polymer (PEDOT-PSS) matrix is capable of switching color in response to different applied voltages. When a double potential step from +1.5 V to −1.5 V vs ground was applied to the device, a redox-dependent color switch was observed (FIG. 11). The current required to switch from one colored state to another was plotted as a function of time upon application of a square-wave potential (FIG. 10). […] In each case, the switching time for each step was calculated as the time required to reach 95% of the maximum current.
The spectral tunability of these materials was also investigated by varying the ratio between PEDOT:PSS and pigment (FIG. 11). Different concentrations of xanthommatin (from 0.04 mg/ml to 0.16 mg/ml) were used while the amount of PEDOT:PSS remained constant. The color of each film activated at the different redox states was measured using the International Commission of Illumination (CIE) 1931 xy-chromaticity diagram. […]
Because the human eye is most sensitive at 555 nm, all transmittance values were calculated at this wavelength without any background correction.

[5] = Complex refractive index determination; format: physicochemical
Description: as §1

[6] = Spectrophotometric pH titration, experimental determination of pKa; format: physicochemical; details: water titrated with 0.05 M NaOH, extrapolated from absorbance intensity at 430 and 360 nm as a function of pH
Protocol: The two observed pKas are indicated by the dashed lines at 5.50 and 8.40.
The purified xanthommatin (˜5 mg) was suspended in water (5.00 mL) and titrated to a starting pH of 2.08. The solution was then titrated with 0.05 M NaOH until the pH reached 10.37. During each point in the titration, the solution pH and absorbance was determined. pH levels were measured using a Fisher Scientific Accumet AP 110 pH meter (Fisher Scientific, Waltham, MA).
The pH-dependent color change of a […] solution of xanthommatin was monitored over a pH range of 1.90-10.30 using spectrophotometry. Three distinct patterns were associated with the increasing pH (see FIG. 8). At pH<3.00, the pigment was pale-yellow with a λmax˜430 nm. […] To determine whether the observed intensity in color was reversible at the lower pH values, the pH of xanthommatin was next cycled between acidic (2.00-3.00) and neutral (pH 6.00-8.00) conditions six times, and the absorbance intensity at 430 nm was followed. […]
If the presence or absence of protons were indeed influencing the resultant visible color, then individual acid dissociation constants (Ka) could be experimentally extrapolated and used to follow compositional changes in the biochrome as a function of pH. To test this, it was determined how absorbance intensities varied as a function of pH at both 430 and 360 nm (see FIG. 9). […]

pigment hydrolysis [3]: pigment hydrolysis occurred | optical contrast (ΔT %) [4]: 25.4% | complex refractive index (RI) [5]: 1.92+0.014i | pKa [6]: 5.5
Compound: NC(CC(=O)c1cccc2oc3cc(=O)c4[nH]c(C(=O)O)cc(=O)c4c-3nc12)C(=O)O (stereo not shown) [Xa, xanthommatin]
HORAC activity [1]: enhanced activity in comparison to commercially available standard gallic acid | HORAC activity ([1]; listed as Xanthommatin): enhanced activity when compared to commercially available antioxidant gallic acid | SPF in vitro ([2]; 0.062 mM): 3 | SPF in vitro ([2]; 0.125 mM): 14 | SPF in vitro ([2]; 0.250 mM): 38 | UV radiation absorption relative to current chemical filters ([2]; same concentrations, FIG. 12 comparators avo- and oxy-benzone): ~2 ×
